In patent publication US12714747B2, “Cytotoxic lipid particles targeted to tumor-associated myeloid cells (TAMCS) and synergized with radiation therapy for treating glioblastoma” (priority 2019, dated 2026):

Assays:
[1] = test system: glioma-associated immune cells (TAMC, microglia, TIL); test: Ex vivo TAMC elimination assay; format: cell-based, mice; settings: 0, 25, 50 nM Dina, 72 h
Experimental: TAMC targeting and elimination in ex vivo mice and human glioma models. Cell suspension collected from mouse or human samples was plated into 96 well U bottom plate. Cells were pre-blocked with Ultra-LEAF purified anti-mouse CD16/32 antibody or Human TruStain FcX (BioLegend) for 10 min at 4° C., followed by incubation with fluorescence labeled LNPs (0.15 mg lipids/ml) for 1 h at 37° C. in 5% CO2 humidified atmosphere. After gently washed with ice-cold PBS thrice, the cells were collected for staining with viability dye and antibodies. The cellular uptake was analyzed by flow cytometry. The ex vivo TAMC elimination assay was performed using cell suspension collected from mouse glioma samples. Cells were plated into 96 well U bottom plate in 50% complete RPMI and 50% conditioned media collected from GL261 glioma cell culture as aforementioned. Cells were subject to the treatment of αPD-L1/LNP/Dina or free Dina at a Dina concentration of 0, 25, and 50 nM for 72 h, and analyzed by flow cytometry.

[2] = test system: TAMCs; test: Annexin V viability assay of TAMCs; format: cell-based, C57BL/6 mice; settings: 24 h
Experimental: In vitro viability, gene expression, and PD-L1 expression of TAMCs post treatments. In vitro generated TAMCs (8×10^5 cells/well) were seeded in 24-well plate. After 24 h of culture, cells were incubated with αPD-L1-LNP/Dina, αPD-L1-LNP, or free Dina. At predetermined time intervals, the cells were collected and washed, followed by the annexin V assay (BioLegend). RNA isolation was processed using the RNEasy Plus Mini Kit (Qiagen), and total RNA was quantified by Nanodrop (Thermo Scientific). cDNA was synthesized using the iScript cDNA synthesis kit (Bio-Rad), and analyzed by qPCR analysis (Bio-Rad). Selected groups of cells were exposed to irradiation and collected 72 h post treatments for cell circle analysis using BrdU Flow Kit (Fisher) following the manufacturer's protocol.

[3] = test system: PD-L1; test: PD-L1 expression on TAMCs after IFNγ stimulation (RT-qPCR, flow cytometry); format: cell-based, C57BL/6 mice; settings: as low as
Experimental: To detect the PD-L1 expression on TAMCs post treatments, in vitro generated TAMCs (8×10^5 cells/well) were seeded in 24-well plate. After 24 h of culture, cells were subject to different treatments (Dina, αPD-L1/LNP, or αPD-L1-LNP/Dina) at a Dina concentration of 25 nM. Selected groups of cells were exposed to IFNγ (PeproTech) stimulation at 10 ng/ml for 24 h. Cells were collected and washed, followed by qPCR analysis or antibody staining for flow cytometry. The effect of irradiation on PD-L1 expression on TAMCs was similarly assessed 72 h post irradiation.

Structure (SMILES): CCc1cnn2c(NCc3ccc[n+]([O-])c3)cc(N3CCCC[C@H]3CCO)nc12 [Dina, Dinaciclib]
- off-target toxicity to tumor-infiltrating lymphocytes / immune cell populations [1]: severe off-target cytotoxicity
- cytotoxicity / viability of TAMCs [2]: comparable cytotoxicity
- dose attenuating PD-L1 expression on TAMCs [3]: 25 nM
